“Also recorded” adds a separate entry of the source.
Columns and labels:
DAOY cells [1] = assay: Cell viability MTT assay in DAOY cells; assay type: cell-based, human; conditions: 48-72 hours
Method: For cell viability assay, DAOY cells from SHH-MB group and HD-MB03 from Group 3 MB were exposed to new analogs in a range of concentrations. In brief, cells were seeded in 96-well plate with a density of 3×10^3 cells/well density for 16 hours. Cells were then treated with different drug concentrations for 48-72 hours. MTT assay reagent was added to the cells and after incubation for 4 hours, formazan crystals were dissolved in 200 μL DMSO, and the absorbance was determined using a microplate reader (Molecular Devices Me5). The IC50 was determined by nonlinear least square regression by performing each experiment in triplicate.

DAOY and HDMB-03 cells = assay: Transwell migration assay; assay type: cell-based, human; conditions: vs control
Method: FIGS. 2A-2D show the effect of MDP5 treatment on cell viability and migration potential in MB cells. FIGS. 2A and 2B provide graphs of cell viability assays with DAOY cells (FIG. 2A) and HD-MB03 cells (FIG. 2B) with the indicated compounds. FIG. 2C provides images of the Transwell® migration assay and FIG. 2D provides quantitation of the Transwell® migration assay (top: DAOY cells; bottom: HD-MB03 cells). Cells were fixed in formalin and stained with 0.5% crystal violet for 30 minutes. Images were taken using a microscope at 20× objective. Stained cells were then dissolved in acetic acid solution and optical density (OD) was measured at 590 nm. Scale bar: 100 μm. **P<0.01 and ***P<0.001 vs Control.
Further, the effect of MDPS on cell migration was investigated.

HD-MB03 cells = assay: Cell cycle analysis in HD-MB03 cells; assay type: cell-based, human; conditions: 5 μM, 48 hours; control 44.7%
From the text: FIGS. 3A-3F show the effect of MDP5 treatment on cell cycle analysis, induction of apoptosis, and colony formation assay in MB cells. […] Histograms show the quantitative analysis of cell cycle assay for DAOY (FIG. 3A) and HD-MB03 (FIG. 3B) cells (n=5; mean±S.D., p<0.05). […] FIG. 3C provides images of cells treated with the indicated compounds. […] FIGS. 3D and 3E provide graphs of the apoptotic assay showing higher numbers of apoptotic cells in MDP5 treated groups (n=5; mean±S.D.; p<0.05). FIG. 3F provides a graph of the relative expression of BCL2 and MYCN target genes after treatment, as determined by RT-PCR.
Cell cycle distribution was determined in proliferating MB cells. […] Cells were harvested with 0.25% EDTA-free trypsin (Gibco) and washed twice in ice-cold PBS. Control and treated cells (0.1×10^6) were stained with FxCycle™ PI/RNase Staining Solution (ThermoFisher Scientific) and analyzed for DNA content via flow cytometry.

DAOY cells [2] = assay: Annexin V/PI apoptosis assay in DAOY cells; assay type: cell-based, human; conditions: 48 hours of treatment; untreated 25.61%
Method: For apoptosis assay, the cells were collected as above and stained with 500 μL 1× binding buffer containing 5 μL annexin V-FITC and 10 μL propidium iodide (PI) in the dark for 5 minutes. Flow cytometry (FACSCalibur™ cytometer, BD Biosciences) was performed to quantify and calculate the cell apoptosis rate. AV-FITC values were set horizontally, and PI values were set as vertical axes. All experiments were performed in triplicate.

[3] = system: DAOY and HD-MB03 cell-generated tumors; assay: Subcutaneous MB tumor xenograft model; assay type: in vivo; conditions: for tumor growth / tumor burden: 15 mg/kg dose, vs vehicle treated control
Method: All the animal-related experiments were performed according to the Institutional Animal Care and Use Committee (IACUC) of the University of Nebraska Medical Center's approved protocol and met federal guidelines. Subcutaneous and orthotopic xenograft models were generated in this study. For establishing the xenograft model, DAOY cells (1×10^6) were injected into the right flank of 8-10 weeks old male and female mice. Tumor growth was measured non-invasively by using vernier calipers. For both measurements, tumor volumes were calculated by using the following formula: Volume=(Length×Width^2)/2.
A total of seven injections were given, and the mouse body weights were measured before every injection. The tumor growth was monitored by calipers in the case of the xenograft model and by IVIS imaging for the orthotopic model. For histological examination, the major organs of representative mice from each animal group were dissected and stained with H&E. Tissues after being fixed with 10% paraformaldehyde solution for 24 hours were embedded in 5 μm thick sections of paraffin, and were stained for different proteins. Stained slides were imaged at 40× magnification using an iScan HT Slide Scanner (Ventana Medical Systems, Inc, AZ).

BRD4-BD2 = BRD4-BD2 (Homo sapiens, UniProt O60885); assay: Protein Thermal Shift (PTS) assay on BRD4-BD2; assay type: binding; design: polyhistidine (N, cleaved yes); made in house; host or cells: E. coli (T7 express); conditions: 100 μM ligand, 20 μM BD protein
Method: The genes encoding human BRD2-BD1, BRD2-BD2, and BRD4-BD2 were codon-optimized for expression in E. coli. […] The sequence-confirmed plasmids were used to transform T7 express E coli. Large-scale cell cultures were grown in LB media containing […] carbenicillin and incubated with shaking at 37° C. until the OD600 nm reached 0.6. Then cultures were cooled to 16° C., and 1 mM isopropyl β-D-1-thiogalactopyranoside was added to induce the protein expression. After 20 hours of incubation, cells were harvested. The resulting cell pellet was resuspended in a lysis buffer containing 50 mM Tris pH 7.5, 200 mM NaCl, 0.5 mM imidazole, and 0.3 mM tris(2-carboxyethyl) phosphine (TECP). After the addition of DNase I and lysozyme, the cell suspension was incubated on ice for 30 minutes and lysed by sonication. The lysate was clarified by centrifugation at 12,000 rpm for 45 minutes. The resulting supernatant was applied to a 5 mL metal affinity cobalt column pre-equilibrated with lysis buffer. Then, 25 column volumes of lysis buffer were passed through the column to eliminate unbound E coli proteins. Recombinant protein was eluted isocratically with the elution buffer containing 50 mM Tris pH 7.5, 200 mM NaCl, 150 mM imidazole, and 0.3 mM TECP. The rhinovirus 3C protease was added to the eluted recombinant protein to cleave the N-terminal Histidine tag and the sample dialyzed against a buffer containing 50 mM Tris pH 7.5, 100 mM NaCl and 0.3 mM TECP. After 12 hours, the protein solution was passed through a 5 ml cobalt column, which was pre-equilibrated with dialysis buffer, and the recombinant protein lacking the His-tag was collected from the flowthrough.
Each reaction used 20 μM concentration of recombinant BD protein in a 50 mM Tris pH 7.5 buffer containing 100 mM NaCl, 0.3 mM tris(2-carboxyethyl) phosphine HCl, and 1% dimethyl sulfoxide. Protein Thermal Shift Dye (ThermoFisher) was also added at 1× concentration. Under these conditions, 3 protein melting curves with each respective BD and 100 μM final concentration of ligand were performed from 25 to 95° C. with a ramp rate of 0.5° C./minute. Evaluation of the derivative of the fluorescence signal employed the Applied Bioscience Protein Thermal Shift Software version 1.3 to determine the average melting temperature (Tm) for each sample and the standard deviation(s) of those Tm values.

Row | Structure (SMILES) | IC50 (DAOY cells [1]; Homo sapiens, Daoy) [µM] | cells migrated in Transwell migration assay (DAOY and HDMB-03 cells) | cells in the G1 phase, HD-MB03 (HD-MB03 cells) [%] | percentage of apoptotic cells, DAOY (DAOY cells [2]) [%] | tumor growth / tumor burden [3] | BRD4-BD2 Tm decrease (BRD4-BD2; thermal destabilization) [°C] | IC50 (DAOY cells [1]) [µM] | toxicity / tolerability by body weight ([3]; 20 mg/kg i.v. every third day) | histologic examination of major organs (liver, lung, spleen, heart, kidneys) ([3]; 20 mg/kg, after completion of treatment) | tumor growth (tumor volume) ([3]; 20 mg/kg, vs vehicle/control group) | H&E staining and Ki-67 IHC of tumors ([3]; DAOY and HD-MB03 generated tumors) | tolerability by body weight and histological examination of vital organs ([3]; tested dose of b195 (15 mg/kg), vs vehicle control) | BRD4-BD2 Tm increase (BRD4-BD2) [°C]
1 | O=C(/C=C/N1CCOCC1)c1cccc(-c2cc3c(cc2Br)OCCO3)c1O [MDP1, (E)-1-(3-(7-bromo-2,3-dihydrobenzo [b][1,4]dioxin-6-yl)-2-hydroxyphenyl)-3-morpholinoprop-2-en-1-one] | 5.51 | decreased the amount of DAOY and HDMB-03 cells migrated | 26.2 | 61.31 | significant inhibition of tumor growth | 1.3 |  |  |  |  |  |  | 
2 | O=c1cc(N2CCOCC2)oc2c(-c3ccc4c(c3)OCCO4)cccc12 [MDP5, 8-(2,3-dihydrobenzo [b][1,4]dioxin-6-yl)-2-morpholino-4H-chromen-4-one] | 5.57 | decrease migration significantly | 52.2 | 70.35 | significant inhibition of tumor growth |  | 5.5 | no sign of toxicity; also recorded: well tolerated (no bodyweight change) | did not demonstrate toxicity | significantly affected tumor growth; also recorded: reduced tumor growth compared to the control group | suppressed cell proliferation and decreased tumor burden | well tolerated | 1.7
3 | O=c1cc(N2CCOCC2)oc2c(-c3ccc4c(c3)OCCO4)csc12 [SF2523, reference compound] |  | decreased the amount of DAOY and HDMB-03 cells migrated | 58.9 | 56.50 | significant inhibition of tumor growth |  | 12.6 |  |  |  |  |  | 3.4

From US20260069599A1, “INHIBITORS OF BROMODOMAIN-CONTAINING PROTEIN 4 AND PHOSPHOINOSITIDE 3-KINASE” (Board of Regents of the University of Nebraska, priority 2022, published 2026)
